ChEMBL document CHEMBL4296182, “CO-ADD screening of NIH NCI Diversity Set V”
In brackets after ≈: the same amount, converted by molar mass.

Experiments:
Klebsiella pneumoniae = test: microbe, parasite or virus in culture; settings: ATCC 700603, 18 h, ASSAY_TEST Inhibition of Bacterial Growth, detection method Absorption (OD600), MEDIA CAMHB, plate type 384well, NBS, CORNING #3640
Description: Antibacterial activity against Klebsiella pneumoniae MDR ATCC 70063 (CO-ADD:GN_003); MIC in CAMBH media using NBS plates, by OD(600)

Staphylococcus aureus = test: microbe, parasite or virus in culture; settings: ATCC 43300, 18 h, ASSAY_TEST Inhibition of Bacterial Growth, detection method Absorption (OD600), MEDIA CAMHB, plate type 384well, NBS, CORNING #3640
Description: Antibacterial activity against Staphylococcus aureus MRSA ATCC 43300 (CO-ADD:GP_020); MIC in CAMBH media, using NBS plates, by OD(600)

HEK293 = test: cells; assay type: functional; settings: Homo sapiens, ATCC CRL1573, HEK293; ASSAY_TEST Inhibition of Cell Viability; detection method Resazurin; Fluorescence (ex560/em590); MEDIA DMEM with 10% FBS; plate type 384well; TC; CORNING #3712; time 18 hr
Acinetobacter baumannii = test: microbe, parasite or virus in culture; settings: ATCC 19606, 18 h, ASSAY_TEST Inhibition of Bacterial Growth, detection method Absorption (OD600), MEDIA CAMHB, plate type 384well, NBS, CORNING #3640
Description: Antibacterial activity against Acinetobacter baumannii ATCC 19606 (CO-ADD:GN_034); MIC in CAMBH media using NBS plates, by OD600

Escherichia coli = test: microbe, parasite or virus in culture; settings: ATCC 25922, 18 h, ASSAY_TEST Inhibition of Bacterial Growth, detection method Absorption (OD600), MEDIA CAMHB, plate type 384well, NBS, CORNING #3640
Description: Antibacterial activity against Escherichia coli ATCC 25922 (CO-ADD:GN_001); MIC in CAMBH media using NBS plates, by OD(600)

Candida albicans = test: microbe, parasite or virus in culture; settings: ATCC 90028, ASSAY_TEST Inhibition of Fungal Growth, detection method Absorption (OD530), plate type 384well, NBS, CORNING #3640
Description: Antifungal activity against Candida albicans ATCC 90028 (CO-ADD:FG_001); MIC in YNB media using NBS plates, by OD630

Pseudomonas aeruginosa = test: microbe, parasite or virus in culture; settings: ATCC 27853, 18 h, ASSAY_TEST Inhibition of Bacterial Growth, detection method Absorption (OD600), MEDIA CAMHB, plate type 384well, NBS, CORNING #3640
Description: Antibacterial activity against Pseudomonas aeruginosa ATCC 27853 (CO-ADD:GN_042); MIC in CAMBH media using NBS plates, by OD(600)

Description for Cryptococcus neoformans: Antifungal activity against Cryptococcus neoformans H99 ATCC 208821 (CO-ADD:FG_002); MIC in YNB media using NBS plates, by Resazurin OD(600-570)

| SMILES | MIC (Klebsiella pneumoniae) [µM] | MIC (Staphylococcus aureus) [µM] | MIC (Cryptococcus neoformans) [µM] | MIC (Acinetobacter baumannii) [µM] | MIC (Escherichia coli) [µM] | MIC (Candida albicans) [µM] | MIC (Pseudomonas aeruginosa) [µM] | CC50 (HEK293) [µM] |
| --- | --- | --- | --- | --- | --- | --- | --- | --- |
| Cc1ccccc1NC(=O)NCCN1CC1 | > 10 | > 10 | > 10 | > 10 | > 10 | > 10 | > 10 | > 10 |
| CN1CCN(c2ccc([N+](=O)[O-])c3no[n+]([O-])c23)CC1 | > 10 | 2.5 (≈ 0.698 µg/mL) | > 10 | > 10 | > 10 | > 10 | > 10 | 0.755 |
| Cn1c2ccccc2c2ccc3c(c21)C(=O)C=CC3=O | > 10 | > 10 | > 10 | > 10 | > 10 | > 10 | > 10 | > 10 |
| CSc1nc(C)c(Br)c(N2CC2)n1 | > 10 | > 10 | > 10 | > 10 | > 10 | > 10 | > 10 | > 10 |
| COc1ccccc1/C=C/C(=O)/C=C/c1ccccc1O | > 10 | > 10 | > 10 | > 10 | > 10 | > 10 | > 10 | 3.95 |
| SC1=NC2(CCCCCC2)NN1c1ccccc1 | > 10 | > 10 | > 10 | > 10 | > 10 | > 10 | > 10 | > 10 |
| CN(C)c1ccc(/N=N/c2ccccn2)cc1 | > 10 | > 10 | > 10 | > 10 | > 10 | 10 (≈ 2.26 µg/mL) | > 10 | > 10 |
| Oc1ccc2ccccc2c1/N=N/c1nccs1 | > 10 | > 10 | 2.5 (≈ 0.638 µg/mL) | > 10 | > 10 | 10 (≈ 2.55 µg/mL) | > 10 | > 10 |
| Cc1c(-c2ccccc2)n(O)[n+]([O-])c1-c1ccccc1 | > 10 | > 10 | > 10 | > 10 | > 10 | > 10 | > 10 | > 10 |
| C#CC(c1ccccc1)(c1ccccc1)n1ccnc1 | > 10 | > 10 | > 10 | > 10 | > 10 | > 10 | > 10 | > 10 |
| Cc1ccc2ccc(C#N)cc2c1O | > 10 | > 10 | > 10 | > 10 | > 10 | > 10 | > 10 | > 10 |
| O=[N+]([O-])c1cc([N+](=O)[O-])c2cccnc2c1O | > 10 | > 10 | > 10 | > 10 | > 10 | 10 (≈ 2.35 µg/mL) | > 10 | > 10 |
| O=[N+]([O-])c1ccc(/C=[N+](\[O-])CCO)o1 | > 10 | > 10 | > 10 | > 10 | 10 (≈ 2 µg/mL) | > 10 | > 10 | > 10 |
| CC1(C)CC(=O)CC(C)(C)N1O | > 10 | > 10 | > 10 | > 10 | > 10 | > 10 | > 10 | > 10 |
| Oc1c(/N=N/c2nnn[nH]2)ccc2ccccc12 | > 10 | > 10 | > 10 | > 10 | > 10 | > 10 | > 10 | > 10 |
| C1C2CC3C1C3/C2=N\N=C1/C2CC3C(C2)C13 | > 10 | > 10 | > 10 | > 10 | > 10 | > 10 | > 10 | > 10 |
| CNc1ncn(-c2c(C)cccc2C)c(=O)n1 | > 10 | > 10 | > 10 | > 10 | > 10 | > 10 | > 10 | > 10 |
| Cc1nc(/N=N/c2ccccc2)[nH]c1/N=N/c1ccccc1 | > 10 | > 10 | > 10 | > 10 | > 10 | > 10 | > 10 | > 10 |
| CCC(C)c1cnc(CC(C)C)c(=O)n1O (stereo not given) | > 10 | > 10 | > 10 | > 10 | > 10 | > 10 | > 10 | > 10 |
| O=[N+]([O-])c1ccc(Sc2cccc[n+]2[O-])c2nonc12 | > 10 | > 10 | 10 (≈ 2.9 µg/mL) | > 10 | > 10 | 1.25 (≈ 0.363 µg/mL) | > 10 | 2.53 |

The next lines start with results.

| MIC (Klebsiella pneumoniae) [µM] | MIC (Staphylococcus aureus) [µM] | MIC (Cryptococcus neoformans) [µM] | MIC (Acinetobacter baumannii) [µM] | MIC (Escherichia coli) [µM] | MIC (Candida albicans) [µM] | MIC (Pseudomonas aeruginosa) [µM] | SMILES | CC50 (HEK293) [µM] |
| --- | --- | --- | --- | --- | --- | --- | --- | --- |
| > 10 | > 10 | > 10 | > 10 | > 10 | > 10 | > 10 | Cc1cc2cc3c(O)nc(O)nc3nc2cc1C | > 10 |
| > 10 | > 10 | 10 (≈ 2.08 µg/mL) | > 10 | > 10 | 10 (≈ 2.08 µg/mL) | > 10 | O=[N+]([O-])c1cc(F)c2cccnc2c1O | > 10 |
| > 10 | > 10 | > 10 | > 10 | > 10 | > 10 | > 10 | Cc1cc2nc(CS)[nH]c2cc1C | > 10 |
| > 10 | > 10 | 5 (≈ 1.2 µg/mL) | > 10 | > 10 | 5 (≈ 1.2 µg/mL) | > 10 | O=[N+]([O-])c1cnc(Sc2ccncn2)s1 | > 10 |
| > 10 | > 10 | > 10 | > 10 | > 10 | > 10 | > 10 | O=C1C=C(c2ccccc2)OC(=O)C1C(=O)c1ccccc1 (stereo not given) | > 10 |
| > 10 | > 10 | 1.25 (≈ 0.216 µg/mL) | > 10 | > 10 | 0.625 (≈ 0.108 µg/mL) | > 10 | O=Cc1ccc(O)c2ncccc12 | > 10 |
| > 10 | > 10 | > 10 | > 10 | > 10 | 10 (≈ 2.62 µg/mL) | > 10 | O=C1N=C(Nc2nc3ccccc3[nH]2)c2ccccc21 | > 10 |
| > 10 | > 10 | > 10 | > 10 | > 10 | > 10 | > 10 | Sc1nc2cc(-c3ccccc3)ccc2o1 | > 10 |
| > 10 | > 10 | > 10 | > 10 | > 10 | > 10 | > 10 | Sc1ncnc2c1ncn2C1CCCO1 (stereo not given) | > 10 |
| 5 (≈ 1.19 µg/mL) | > 10 | > 10 | > 10 | > 10 | > 10 | > 10 | O=C(c1cccnc1)C1Cc2ccccc2C1=O (stereo not given) | > 10 |
